Source: ChEMBL document CHEMBL1145498, “A systematic interaction map of validated kinase inhibitors with Ser/Thr kinases” (Proc Natl Acad Sci U S A, 2007)

Assays:
[1] = target: T1, Myotonin-protein kinase (Homo sapiens) (UniProt Q09013)
T1 sequence (whole entry): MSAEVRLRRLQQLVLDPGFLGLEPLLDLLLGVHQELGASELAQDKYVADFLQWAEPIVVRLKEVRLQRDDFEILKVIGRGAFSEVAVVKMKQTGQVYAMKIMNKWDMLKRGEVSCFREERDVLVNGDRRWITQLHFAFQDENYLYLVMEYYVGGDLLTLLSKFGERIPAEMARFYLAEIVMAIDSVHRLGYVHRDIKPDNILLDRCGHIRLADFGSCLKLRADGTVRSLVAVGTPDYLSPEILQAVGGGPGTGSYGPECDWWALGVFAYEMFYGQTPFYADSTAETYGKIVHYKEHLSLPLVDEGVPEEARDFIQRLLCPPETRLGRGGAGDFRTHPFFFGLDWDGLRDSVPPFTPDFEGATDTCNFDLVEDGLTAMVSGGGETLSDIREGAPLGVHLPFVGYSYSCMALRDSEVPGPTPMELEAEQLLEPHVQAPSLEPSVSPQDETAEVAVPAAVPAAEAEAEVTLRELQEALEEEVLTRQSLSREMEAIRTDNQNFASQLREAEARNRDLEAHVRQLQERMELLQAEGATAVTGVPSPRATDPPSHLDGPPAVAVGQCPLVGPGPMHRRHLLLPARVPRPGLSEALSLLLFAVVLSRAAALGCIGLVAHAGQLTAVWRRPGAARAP

[2] = target: TRAF2 and NCK-interacting protein kinase (Homo sapiens) (UniProt Q9UKE5)
Chain of TRAF2 and NCK-interacting protein kinase (Homo sapiens) (Q9UKE5 whole entry, looked up): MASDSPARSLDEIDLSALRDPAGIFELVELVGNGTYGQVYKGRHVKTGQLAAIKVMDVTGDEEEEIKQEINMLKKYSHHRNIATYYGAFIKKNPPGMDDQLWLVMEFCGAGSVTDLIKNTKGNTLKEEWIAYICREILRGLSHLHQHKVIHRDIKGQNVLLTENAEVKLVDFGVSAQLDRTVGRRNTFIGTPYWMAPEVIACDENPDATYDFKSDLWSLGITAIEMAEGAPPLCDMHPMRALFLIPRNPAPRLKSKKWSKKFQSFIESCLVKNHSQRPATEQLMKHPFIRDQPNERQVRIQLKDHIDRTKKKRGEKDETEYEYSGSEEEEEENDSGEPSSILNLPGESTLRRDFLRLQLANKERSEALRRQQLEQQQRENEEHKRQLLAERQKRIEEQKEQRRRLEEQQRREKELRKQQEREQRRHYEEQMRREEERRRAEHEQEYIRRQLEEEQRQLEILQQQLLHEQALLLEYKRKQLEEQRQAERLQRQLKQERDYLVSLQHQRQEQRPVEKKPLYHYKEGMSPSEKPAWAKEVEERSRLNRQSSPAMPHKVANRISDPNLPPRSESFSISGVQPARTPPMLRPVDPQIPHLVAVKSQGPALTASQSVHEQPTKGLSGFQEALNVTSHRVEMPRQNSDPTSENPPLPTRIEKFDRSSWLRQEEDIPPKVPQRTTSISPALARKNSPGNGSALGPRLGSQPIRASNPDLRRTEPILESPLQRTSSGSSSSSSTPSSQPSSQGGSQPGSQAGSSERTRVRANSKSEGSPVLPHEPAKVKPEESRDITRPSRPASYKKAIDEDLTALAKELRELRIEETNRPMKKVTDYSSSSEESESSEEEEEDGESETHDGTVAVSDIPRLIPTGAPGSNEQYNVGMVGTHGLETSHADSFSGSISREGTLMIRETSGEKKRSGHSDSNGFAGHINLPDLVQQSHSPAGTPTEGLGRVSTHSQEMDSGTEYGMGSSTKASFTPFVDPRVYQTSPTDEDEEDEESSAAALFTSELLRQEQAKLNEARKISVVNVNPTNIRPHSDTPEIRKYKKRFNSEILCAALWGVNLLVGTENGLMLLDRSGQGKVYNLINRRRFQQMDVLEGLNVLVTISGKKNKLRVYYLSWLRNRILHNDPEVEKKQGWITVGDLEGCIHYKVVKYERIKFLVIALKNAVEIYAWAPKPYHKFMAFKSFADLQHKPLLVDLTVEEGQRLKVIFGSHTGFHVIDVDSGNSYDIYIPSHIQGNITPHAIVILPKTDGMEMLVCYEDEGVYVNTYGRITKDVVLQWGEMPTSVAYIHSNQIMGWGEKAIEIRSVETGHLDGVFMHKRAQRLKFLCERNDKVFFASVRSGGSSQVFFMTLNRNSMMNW

[3] = target: Calcium/calmodulin-dependent protein kinase type II subunit delta (Homo sapiens) (UniProt Q13557)
Chain of Calcium/calmodulin-dependent protein kinase type II subunit delta (Homo sapiens) (Q13557 whole entry): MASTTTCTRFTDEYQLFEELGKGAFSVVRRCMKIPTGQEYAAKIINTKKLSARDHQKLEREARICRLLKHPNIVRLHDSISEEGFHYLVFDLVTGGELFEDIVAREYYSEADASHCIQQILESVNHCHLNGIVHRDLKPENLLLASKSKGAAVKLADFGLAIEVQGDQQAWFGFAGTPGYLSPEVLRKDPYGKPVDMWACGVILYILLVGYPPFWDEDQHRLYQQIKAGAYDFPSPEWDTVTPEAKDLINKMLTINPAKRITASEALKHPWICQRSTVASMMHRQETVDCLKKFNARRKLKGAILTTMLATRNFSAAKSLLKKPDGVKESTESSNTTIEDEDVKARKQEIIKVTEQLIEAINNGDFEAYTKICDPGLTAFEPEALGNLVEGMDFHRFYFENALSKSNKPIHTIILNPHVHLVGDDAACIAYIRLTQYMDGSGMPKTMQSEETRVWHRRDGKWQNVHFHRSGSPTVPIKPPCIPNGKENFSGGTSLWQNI

[4] = target: Serine/threonine-protein kinase PAK 4 (Homo sapiens) (UniProt O96013)
Chain of Serine/threonine-protein kinase PAK 4 (Homo sapiens) (O96013 whole entry, looked up): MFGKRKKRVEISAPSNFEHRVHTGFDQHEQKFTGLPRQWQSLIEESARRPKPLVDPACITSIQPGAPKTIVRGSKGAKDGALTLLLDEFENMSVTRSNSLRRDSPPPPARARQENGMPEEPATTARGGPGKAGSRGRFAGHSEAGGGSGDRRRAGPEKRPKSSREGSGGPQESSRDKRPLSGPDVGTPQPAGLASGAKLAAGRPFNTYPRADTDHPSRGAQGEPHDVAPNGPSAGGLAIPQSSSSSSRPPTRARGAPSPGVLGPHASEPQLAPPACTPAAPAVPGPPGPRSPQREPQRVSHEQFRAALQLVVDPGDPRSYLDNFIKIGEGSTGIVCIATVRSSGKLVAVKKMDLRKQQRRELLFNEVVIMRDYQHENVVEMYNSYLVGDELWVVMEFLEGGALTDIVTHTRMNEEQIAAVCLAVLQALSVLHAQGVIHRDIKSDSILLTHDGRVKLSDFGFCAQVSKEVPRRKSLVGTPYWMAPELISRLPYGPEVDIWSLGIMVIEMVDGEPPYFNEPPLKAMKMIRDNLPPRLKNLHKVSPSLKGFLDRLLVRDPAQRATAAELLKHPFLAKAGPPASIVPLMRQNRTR

[5] = target: Serine/threonine-protein kinase PLK1 (Homo sapiens) (UniProt P53350)
[6] = target: Calcium/calmodulin-dependent protein kinase kinase 2 (Homo sapiens, UniProt Q96RR4)
[7] = target: Mitogen-activated protein kinase 11 (Homo sapiens, UniProt Q15759)
[8] = target: Serine/threonine-protein kinase PAK 5 (Homo sapiens) (UniProt Q9P286)
Chain of Serine/threonine-protein kinase PAK 5 (Homo sapiens) (Q9P286 whole entry, looked up): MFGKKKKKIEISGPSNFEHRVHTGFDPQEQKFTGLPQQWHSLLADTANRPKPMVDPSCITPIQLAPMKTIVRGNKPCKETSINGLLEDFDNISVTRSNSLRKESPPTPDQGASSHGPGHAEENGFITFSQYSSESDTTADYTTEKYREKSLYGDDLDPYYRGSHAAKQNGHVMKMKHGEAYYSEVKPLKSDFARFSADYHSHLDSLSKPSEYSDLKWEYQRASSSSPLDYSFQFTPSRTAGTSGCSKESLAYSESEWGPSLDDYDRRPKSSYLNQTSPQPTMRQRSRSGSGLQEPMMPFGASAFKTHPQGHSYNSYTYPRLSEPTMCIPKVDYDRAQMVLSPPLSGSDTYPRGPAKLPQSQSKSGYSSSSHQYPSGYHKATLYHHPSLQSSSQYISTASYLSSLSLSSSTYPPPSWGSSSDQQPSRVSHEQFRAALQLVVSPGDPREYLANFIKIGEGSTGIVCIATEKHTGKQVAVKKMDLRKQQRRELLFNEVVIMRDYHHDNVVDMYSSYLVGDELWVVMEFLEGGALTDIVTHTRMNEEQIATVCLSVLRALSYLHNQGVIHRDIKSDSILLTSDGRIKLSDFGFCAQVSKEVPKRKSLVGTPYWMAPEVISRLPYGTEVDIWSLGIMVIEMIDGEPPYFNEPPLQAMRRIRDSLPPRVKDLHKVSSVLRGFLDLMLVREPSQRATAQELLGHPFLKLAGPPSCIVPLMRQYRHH

[9] = target: Glycogen synthase kinase-3 beta (Homo sapiens, UniProt P49841)
Chain of Glycogen synthase kinase-3 beta (P49841 whole entry, looked up, canonical isoform): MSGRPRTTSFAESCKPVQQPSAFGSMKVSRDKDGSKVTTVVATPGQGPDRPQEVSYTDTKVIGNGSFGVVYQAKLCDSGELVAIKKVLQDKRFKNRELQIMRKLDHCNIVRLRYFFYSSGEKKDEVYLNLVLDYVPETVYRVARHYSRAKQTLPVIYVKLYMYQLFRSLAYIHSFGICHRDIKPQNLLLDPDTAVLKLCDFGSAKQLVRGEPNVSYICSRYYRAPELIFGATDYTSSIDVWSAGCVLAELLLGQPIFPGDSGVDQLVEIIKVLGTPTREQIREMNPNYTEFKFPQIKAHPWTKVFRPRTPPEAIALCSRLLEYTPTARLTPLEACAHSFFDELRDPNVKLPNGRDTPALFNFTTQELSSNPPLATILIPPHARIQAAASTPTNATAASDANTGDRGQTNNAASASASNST

[10] = target: Casein kinase I isoform gamma-3 (Homo sapiens) (UniProt Q9Y6M4)
Chain of Casein kinase I isoform gamma-3 (Homo sapiens) (Q9Y6M4 whole entry, looked up, canonical isoform): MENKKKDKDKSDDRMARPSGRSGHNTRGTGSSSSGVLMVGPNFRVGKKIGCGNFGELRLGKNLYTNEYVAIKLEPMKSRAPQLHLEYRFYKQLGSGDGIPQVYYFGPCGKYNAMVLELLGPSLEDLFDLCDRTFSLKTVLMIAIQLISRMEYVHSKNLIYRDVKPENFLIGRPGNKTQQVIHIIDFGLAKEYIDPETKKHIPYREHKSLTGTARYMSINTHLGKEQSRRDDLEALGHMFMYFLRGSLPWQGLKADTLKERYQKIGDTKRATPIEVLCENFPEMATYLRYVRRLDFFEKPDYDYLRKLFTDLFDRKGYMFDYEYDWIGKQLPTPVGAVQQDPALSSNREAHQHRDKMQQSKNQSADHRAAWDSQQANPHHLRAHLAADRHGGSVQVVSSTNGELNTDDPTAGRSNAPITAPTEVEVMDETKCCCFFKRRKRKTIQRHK

[11] = target: Dual specificity protein kinase CLK2 (Homo sapiens) (UniProt P49760)
[12] = target: Serine/threonine-protein kinase pim-2 (Homo sapiens, UniProt Q9P1W9)
Chain of Serine/threonine-protein kinase pim-2 (Q9P1W9 whole entry, looked up): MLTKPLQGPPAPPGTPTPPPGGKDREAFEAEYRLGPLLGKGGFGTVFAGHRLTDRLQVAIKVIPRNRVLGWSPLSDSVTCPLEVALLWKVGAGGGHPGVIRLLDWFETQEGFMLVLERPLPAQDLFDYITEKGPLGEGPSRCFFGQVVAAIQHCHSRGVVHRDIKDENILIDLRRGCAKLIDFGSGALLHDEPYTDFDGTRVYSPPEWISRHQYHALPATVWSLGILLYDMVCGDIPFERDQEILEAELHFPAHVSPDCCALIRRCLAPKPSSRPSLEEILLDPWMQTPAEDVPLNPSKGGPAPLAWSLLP

[13] = target: cAMP-dependent protein kinase catalytic subunit alpha (Homo sapiens) (UniProt P17612)
[14] = target: T2, Serine/threonine-protein kinase 4 (Homo sapiens) (UniProt Q13043)
T2 sequence (whole entry): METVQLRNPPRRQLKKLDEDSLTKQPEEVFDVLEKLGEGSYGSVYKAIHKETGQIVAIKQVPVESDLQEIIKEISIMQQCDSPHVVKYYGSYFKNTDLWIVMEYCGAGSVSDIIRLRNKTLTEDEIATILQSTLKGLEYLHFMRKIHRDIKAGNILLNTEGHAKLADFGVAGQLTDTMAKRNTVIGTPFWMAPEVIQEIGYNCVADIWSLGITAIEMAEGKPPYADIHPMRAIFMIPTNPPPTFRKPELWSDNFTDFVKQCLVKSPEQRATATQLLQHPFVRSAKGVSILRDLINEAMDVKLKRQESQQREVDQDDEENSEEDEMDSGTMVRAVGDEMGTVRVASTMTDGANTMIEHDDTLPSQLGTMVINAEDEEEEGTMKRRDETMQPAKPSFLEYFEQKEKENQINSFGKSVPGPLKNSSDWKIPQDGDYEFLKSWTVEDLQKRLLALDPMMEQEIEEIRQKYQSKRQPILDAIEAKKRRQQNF

[15] = target: Cyclin-dependent kinase 16 (Homo sapiens) (UniProt Q00536)
Chain of Cyclin-dependent kinase 16 (Homo sapiens) (Q00536 whole entry): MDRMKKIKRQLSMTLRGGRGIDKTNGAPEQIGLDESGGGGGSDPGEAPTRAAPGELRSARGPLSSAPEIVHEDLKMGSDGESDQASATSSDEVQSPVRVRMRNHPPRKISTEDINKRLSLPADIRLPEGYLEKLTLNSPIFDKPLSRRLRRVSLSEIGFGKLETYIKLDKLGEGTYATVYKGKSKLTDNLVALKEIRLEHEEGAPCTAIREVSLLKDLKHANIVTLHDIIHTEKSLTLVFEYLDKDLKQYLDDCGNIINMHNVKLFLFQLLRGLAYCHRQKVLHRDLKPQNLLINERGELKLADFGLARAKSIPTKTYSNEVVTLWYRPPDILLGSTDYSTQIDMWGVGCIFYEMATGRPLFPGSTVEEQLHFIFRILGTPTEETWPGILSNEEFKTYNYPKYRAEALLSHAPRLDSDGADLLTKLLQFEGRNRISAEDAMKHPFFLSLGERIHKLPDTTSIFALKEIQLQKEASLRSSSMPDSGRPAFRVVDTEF

[16] = target: T3, Serine/threonine-protein kinase VRK1 (Homo sapiens) (UniProt Q99986)
T3 sequence (whole entry): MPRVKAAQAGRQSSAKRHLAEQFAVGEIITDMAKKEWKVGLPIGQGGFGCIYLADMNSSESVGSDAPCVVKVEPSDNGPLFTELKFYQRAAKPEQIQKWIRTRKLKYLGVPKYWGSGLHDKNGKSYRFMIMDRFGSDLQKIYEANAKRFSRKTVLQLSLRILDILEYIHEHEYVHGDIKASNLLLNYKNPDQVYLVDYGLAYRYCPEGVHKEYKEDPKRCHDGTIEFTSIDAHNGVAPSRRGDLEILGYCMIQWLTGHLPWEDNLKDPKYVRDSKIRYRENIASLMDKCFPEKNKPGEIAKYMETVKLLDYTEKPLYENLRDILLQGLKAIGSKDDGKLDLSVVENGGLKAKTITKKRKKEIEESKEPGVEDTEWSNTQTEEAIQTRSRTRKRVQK

[17] = target: Serine/threonine-protein kinase VRK2 (Homo sapiens) (UniProt Q86Y07)

Row | Structure (SMILES) | ΔTm [1] [°C] | ΔTm [2] [°C] | ΔTm [3] [°C] | ΔTm [4] [°C] | ΔTm [5] [°C] | ΔTm [6] [°C] | ΔTm [7] [°C] | ΔTm [8] [°C] | ΔTm [9] [°C] | ΔTm [10] [°C] | ΔTm [11] [°C] | ΔTm [12] [°C] | ΔTm [13] [°C] | ΔTm [14] [°C] | ΔTm [15] [°C] | ΔTm [16] [°C] | ΔTm [17] [°C]
1 | NCCNc1ncc(C(N)=O)c(Nc2cccc(C(F)(F)F)c2)n1 | 3.9 | 1.3 | -0.6 | 6.1 | 0.7 | 0.6 | 2 | 5.2 | 8.1 | 5.9 | 1.6 | 0.7 | 2.3 | 0.7 | 0.1 | 3.6 | –
2 | COc1cc2ncnc(Nc3ccc(NC(=O)c4ccccc4)cc3)c2cc1OC [ANILINOQUINAZOLINE1] | 1.1 | 0.9 | 0.4 | 0 | -0.5 | 1.3 | 0.3 | -0.2 | 2.9 | 0.3 | 0 | 0.3 | 1 | 0.6 | -1.4 | 0.5 | –
3 | CCCNC(=O)Nc1ccc(Oc2ncnc3cc(OC)c(OC)cc23)cc1Cl [KRN-633] | 0.6 | 0.2 | 0.3 | 0.5 | 0.1 | 0.7 | -0.3 | -0.2 | 0.1 | -3.7 | -0.2 | 0.2 | 1 | 0.5 | -0.1 | 0.3 | –
4 | O=C(Nc1cccc(Nc2cc(Nc3cccc(C(F)(F)F)c3)ncn2)c1)C1CC1 | 4 | -0.2 | -2 | 0.9 | 0 | 1.7 | 2.8 | 1 | 1.1 | 0.2 | 0.9 | 2.3 | 1.1 | 1.4 | 3.9 | – | –
5 | COc1cc2c(cc1OC)-c1n[nH]c(Nc3cccc(F)c3)c1C2 | 2.4 | 0.7 | 1.2 | 0 | -0.2 | 1.6 | 0.1 | -0.1 | 2.9 | 0.8 | 1.1 | 0.2 | 0.9 | 0.7 | -0.3 | 0.4 | –
6 | CCCCc1c(-c2ccc(O)cc2)[nH]c2nccnc12 [ALOISINE A] | 6.1 | 0 | 1.8 | 2.6 | 2.8 | 1.8 | 1 | 2.2 | 8.3 | 2.5 | 1.9 | 4.5 | 3.8 | -0.2 | -0.5 | -0.2 | 4.2
7 | COc1ccc(Cl)cc1NC(=O)Nc1cc(C)nc2ccccc12 | 0.1 | – | 0.9 | -0.6 | 0.9 | 0.4 | 1.4 | 2.6 | 0 | 0.9 | 0.6 | 1 | 4.8 | – | 0.5 | – | –
